We go through one compound from ChEMBL document CHEMBL4732114, “Design and structural optimization of novel 2H-benzo[h]chromene derivatives that target AcrB and reverse bacterial multidrug resistance” (Eur J Med Chem, 2021).

Assay [1] has as its target T1, Multidrug efflux pump subunit AcrB (Escherichia coli (strain K12)) (UniProt P31224).
T1 sequence (whole entry): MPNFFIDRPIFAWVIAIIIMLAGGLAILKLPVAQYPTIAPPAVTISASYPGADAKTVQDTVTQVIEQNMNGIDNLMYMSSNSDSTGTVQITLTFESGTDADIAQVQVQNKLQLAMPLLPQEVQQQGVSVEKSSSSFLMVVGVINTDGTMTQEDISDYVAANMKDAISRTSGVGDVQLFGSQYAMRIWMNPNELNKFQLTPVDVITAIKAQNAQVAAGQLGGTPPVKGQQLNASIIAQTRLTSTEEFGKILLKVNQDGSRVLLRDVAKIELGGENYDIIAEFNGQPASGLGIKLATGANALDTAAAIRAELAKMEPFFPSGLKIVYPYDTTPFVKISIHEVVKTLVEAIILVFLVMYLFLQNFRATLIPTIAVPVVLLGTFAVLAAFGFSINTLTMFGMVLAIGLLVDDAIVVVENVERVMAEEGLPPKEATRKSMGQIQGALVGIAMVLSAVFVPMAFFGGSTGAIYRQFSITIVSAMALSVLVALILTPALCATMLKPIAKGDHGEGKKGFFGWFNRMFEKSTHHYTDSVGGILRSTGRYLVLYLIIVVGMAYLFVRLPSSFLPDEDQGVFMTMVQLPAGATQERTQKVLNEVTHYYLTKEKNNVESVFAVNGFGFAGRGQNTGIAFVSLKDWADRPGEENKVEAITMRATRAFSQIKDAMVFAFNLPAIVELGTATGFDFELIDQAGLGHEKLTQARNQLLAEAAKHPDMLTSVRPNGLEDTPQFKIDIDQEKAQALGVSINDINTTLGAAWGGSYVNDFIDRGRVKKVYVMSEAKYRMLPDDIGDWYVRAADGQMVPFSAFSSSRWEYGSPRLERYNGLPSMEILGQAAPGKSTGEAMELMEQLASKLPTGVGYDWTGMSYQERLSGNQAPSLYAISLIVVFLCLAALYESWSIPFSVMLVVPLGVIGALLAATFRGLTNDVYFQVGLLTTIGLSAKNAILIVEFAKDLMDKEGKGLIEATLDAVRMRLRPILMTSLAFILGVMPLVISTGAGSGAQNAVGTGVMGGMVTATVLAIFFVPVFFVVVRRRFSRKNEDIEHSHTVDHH
Put plainly: Inhibition of AcrB in multidrug-resistant Escherichia coli BW25113 assessed as potentiation of erythromycin-induced antibacterial activity by measuring fold change in erythromycin MIC at 8 ug/ml by checkerboard titration method relative to erythromycin MIC. To be noted: dose 8.0 µg/ml.

Assay [2] addresses T1, Multidrug efflux pump subunit AcrB (Escherichia coli (strain K12)). Nature of the assay: Inhibition of AcrB in multidrug-resistant Escherichia coli BW25113 assessed as potentiation of levofloxacin-induced antibacterial activity by measuring fold change in levofloxacin MIC at 128 ug/ml by checkerboard titration method relative to levofloxacin MIC. To be noted: dose 128.0 µg/ml.

As for `Cc1ccc(COc2cccc3c4c(c(-c5nnco5)cc23)CCC(C)(C)O4)cc1`, the fold change (FC) is 2 in assay [1] and less than 16 in assay [2].
